Experimental data: ChEMBL document CHEMBL5352426, “Synthesis and anti-tumor activity of nitrogen-containing derivatives of the natural product diphyllin” (Eur J Med Chem, 2022)
Values after ≈ are worked out from the molar mass of the structure shown. Each block holds one molecule with its values, some of them ahead of it. Active and inactive are the calls of the source. No cut-off for these calls is given here.

How the values were obtained:
[1] = Antiproliferative activity against human L02 cells assessed as inhibition of cell proliferation at 1 uM incubated for 72 hrs by SRB assay relative to control; format: toxicity, cell-based
[2] = tested on: MIA PaCa-2; experiment: Antiproliferative activity against human MIA PaCa-2 cells assessed as inhibition of cell proliferation at 1 uM incubated for 72 hrs by SRB assay relative to control; format: functional
[3] = tested on: CFPAC-1; experiment: Antiproliferative activity against human CFPAC-1 cells assessed as inhibition of cell proliferation at 1 uM incubated for 72 hrs by SRB assay relative to control; format: functional
[4] = tested on: PaTu 8988t; experiment: Antiproliferative activity against human PaTu 8988t cells assessed as inhibition of cell proliferation at 1 uM incubated for 72 hrs by SRB assay relative to control; format: functional
[5] = tested on: Panc02; experiment: Antiproliferative activity against mouse Panc02 cells assessed as inhibition of cell proliferation at 1 uM incubated for 72 hrs by SRB assay relative to control; format: functional
[6] = Antiproliferative activity against human L02 cells assessed as inhibition of cell proliferation incubated for 72 hrs by SRB assay; format: toxicity, cell-based
[7] = tested on: MIA PaCa-2; experiment: Antiproliferative activity against human MIA PaCa-2 cells assessed as inhibition of cell proliferation incubated for 72 hrs by SRB assay; format: functional, cell-based; settings: MIA PaCa-2, 72 h
[8] = tested on: CFPAC-1; experiment: Antiproliferative activity against human CFPAC-1 cells assessed as inhibition of cell proliferation incubated for 72 hrs by SRB assay; format: functional, cell-based; settings: CFPAC-1, 72 h
[9] = tested on: PaTu 8988t; experiment: Antiproliferative activity against human PaTu 8988t cells assessed as inhibition of cell proliferation incubated for 72 hrs by SRB assay; format: functional, cell-based
[10] = tested on: Panc02; experiment: Antiproliferative activity against mouse Panc02 cells assessed as inhibition of cell proliferation incubated for 72 hrs by SRB assay; format: functional, cell-based; settings: Panc02, 72 h
[11] = Metabolic stability in human liver microsome assessed as half life; format: ADME; settings: liver microsomes
[12] = Metabolic stability in human liver microsome assessed as intrinsic clearance; format: ADME; settings: liver microsomes, read-out: CLH
[13] = Metabolic stability in human liver microsome assessed as hepatic clearance; format: ADME; settings: microsomes
[14] = Metabolic stability in mouse liver microsome assessed as half life; format: ADME; settings: liver microsomes
[15] = Metabolic stability in mouse liver microsome assessed as intrinsic clearance; format: ADME; settings: liver microsomes, read-out: CLH
[16] = Metabolic stability in mouse liver microsome assessed as hepatic clearance; format: ADME; settings: microsomes
[17] = Aqueous solubility of the compound at 1 to 2 mg measured after 24 hrs by HPLC-MS analysis; format: physicochemical; settings: aqueous (not further specified), dose 1-2 mg
[18] = tested on: CFPAC-1; experiment: Induction of cell cycle arrest in human CFPAC-1 cells assessed as accumulation at G1 phase at 10 nM incubated for 24 hrs by flow cytometry (reference value: 58.6 %); format: functional
[19] = tested on: CFPAC-1; experiment: Induction of cell cycle arrest in human CFPAC-1 cells assessed as accumulation at S phase at 10 nM incubated for 24 hrs by flow cytometry (reference value: 24.5 %); format: functional
[20] = tested on: CFPAC-1; experiment: Induction of cell cycle arrest in human CFPAC-1 cells assessed as accumulation at G2 phase at 10 nM incubated for 24 hrs by flow cytometry (reference value: 14.5 %); format: functional
[21] = tested on: CFPAC-1; experiment: Induction of cell cycle arrest in human CFPAC-1 cells assessed as accumulation at G1 phase at 100 nM incubated for 24 hrs by flow cytometry (reference value: 58.6 %); format: functional
[22] = tested on: CFPAC-1; experiment: Induction of cell cycle arrest in human CFPAC-1 cells assessed as accumulation at S phase at 100 nM incubated for 24 hrs by flow cytometry (reference value: 24.5 %); format: functional
[23] = tested on: CFPAC-1; experiment: Induction of cell cycle arrest in human CFPAC-1 cells assessed as accumulation at G2 phase at 100 nM incubated for 24 hrs by flow cytometry (reference value: 14.5 %); format: functional
[24] = tested on: CFPAC-1; experiment: Induction of cell cycle arrest in human CFPAC-1 cells assessed as accumulation at G1 phase at 1000 nM incubated for 24 hrs by flow cytometry (reference value: 58.6 %); format: functional
[25] = tested on: CFPAC-1; experiment: Induction of cell cycle arrest in human CFPAC-1 cells assessed as accumulation at S phase at 1000 nM incubated for 24 hrs by flow cytometry (reference value: 24.5 %); format: functional
[26] = tested on: CFPAC-1; experiment: Induction of cell cycle arrest in human CFPAC-1 cells assessed as accumulation at G2 phase at 1000 nM incubated for 24 hrs by flow cytometry (reference value: 14.5 %); format: functional
[27] = tested on: CFPAC-1; experiment: Induction of apoptosis in human CFPAC-1 cells assessed as viable cells at 1 uM incubated for 24 hrs by annexin V-FITC/PI staining based flow cytometry (reference value: 93.5 %); format: functional; settings: read-out: Activity
[28] = tested on: CFPAC-1; experiment: Induction of apoptosis in human CFPAC-1 cells assessed as early apoptotic cells at 1 uM incubated for 24 hrs by annexin V-FITC/PI staining based flow cytometry (reference value: 3.04 %); format: functional
[29] = tested on: CFPAC-1; experiment: Induction of apoptosis in human CFPAC-1 cells assessed as late apoptotic cells at 1 uM incubated for 24 hrs by annexin V-FITC/PI staining based flow cytometry (reference value: 3.14 %); format: functional
[30] = tested on: CFPAC-1; experiment: Induction of apoptosis in human CFPAC-1 cells assessed as necrotic cells at 1 uM incubated for 24 hrs by annexin V-FITC/PI staining based flow cytometry (reference value: 0.37 %); format: functional
[31] = tested on: CFPAC-1; experiment: Induction of apoptosis in human CFPAC-1 cells assessed as viable cells at 10 uM incubated for 24 hrs by annexin V-FITC/PI staining based flow cytometry (reference value: 93.5 %); format: functional; settings: read-out: Activity
[32] = tested on: CFPAC-1; experiment: Induction of apoptosis in human CFPAC-1 cells assessed as early apoptotic cells at 10 uM incubated for 24 hrs by annexin V-FITC/PI staining based flow cytometry (reference value: 3.04 %); format: functional
[33] = tested on: CFPAC-1; experiment: Induction of apoptosis in human CFPAC-1 cells assessed as late apoptotic cells at 10 uM incubated for 24 hrs by annexin V-FITC/PI staining based flow cytometry (reference value: 3.14 %); format: functional
[34] = tested on: CFPAC-1; experiment: Induction of apoptosis in human CFPAC-1 cells assessed as necrotic cells at 10 uM incubated for 24 hrs by annexin V-FITC/PI staining based flow cytometry (reference value: 0.37 %); format: functional
[35] = tested on: CFPAC-1; experiment: Effect on beclin-1 level in human CFPAC-1 cells at 10 to 1000 nM incubated for 24 hrs by Western blot analysis; format: functional, cell-based; settings: dose 10-1000 nM
[36] = tested on: CFPAC-1; experiment: Inhibition of autophagy at later stage in human CFPAC-1 cells assessed as increase in LC3-II/LC3-I ratio at 1 uM incubated for 24 hrs in presence of chloroquine by Western blot analysis; format: functional, cell-based
[37] = tested on: Panc02; experiment: Antitumor activity against […] Panc02 cells xenografted in C57BL/6 mouse assessed as tumor growth inhibition at 10 mg/kg, ip administered every two days for 20 days by electronic caliper method relative to control; format: functional; settings: Panc02, 480 h, time 20 day, read-out: TGI
[38] = Toxicity in C57BL/6 mouse xenografted with […] cells assessed as drug tolerance at 10 mg/kg, ip administered every two days for 20 days; format: organism-based; settings: in vivo, 480 h, time 20 day
[39] = Toxicity in C57BL/6 mouse xenografted with […] cells assessed as body weight loss at 10 mg/kg, ip administered every two days for 20 days; format: organism-based; settings: in vivo, 480 h, time 20 day
[40] = tested on: CFPAC-1; experiment: Inhibition of autophagy at later stage in human CFPAC-1 cells assessed as increase in LC3-II/LC3-I ratio at 10 to 1000 nM incubated for 24 hrs by Western blot analysis; format: functional, cell-based; settings: dose 10-1000 nM
[41] = tested on: CFPAC-1; experiment: Downregulation of CDK4 expression level in human CFPAC-1 cells incubated for 24 hrs by Western blot analysis; format: functional, cell-based; settings: dose 10-1000 nM
[42] = tested on: CFPAC-1; experiment: Downregulation of cyclin D1 expression level in human CFPAC-1 cells incubated for 24 hrs by Western blot analysis; format: functional, cell-based; settings: dose 10-1000 nM

IC50 [7]: 271 nM
IC50 [10]: 61 nM
half-life [11]: 43.8 min
microsomal CLint [12]: 31.6 µL/min/mg
CLH [13]: 13.2 mL/min/kg
half-life [14]: < 5 min
microsomal CLint [15]: > 277 µL/min/mg
CLH [16]: > 83.2 mL/min/kg
solubility at 24 h [17]: 0.021 µg/mL (≈ 0.0552 µM)
SMILES: COc1cc2c(O)c3c(c(-c4ccc5c(c4)OCO5)c2cc1OC)C(=O)OC3 [DIPHYLLIN]
inhibition at 72 h, 1 µM [1]: 17.7%
inhibition at 1 µM [2]: 70.1%
inhibition at 1 µM [3]: 75.4%
inhibition at 1 µM [4]: 77.5%
inhibition at 1 µM [5]: 83.3%
IC50 at 72 h [6]: 3320 nM
IC50 [8]: 208 nM
IC50 [9]: 102 nM
Activity [18]: 58.9%
Activity [19]: 28.7%
Activity [20]: 10.1%
Activity [21]: 66.7%
Activity [22]: 20.4%
Activity [23]: 10.6%
Activity [24]: 81.9%
Activity [25]: 8.14%
Activity [26]: 7.81%
viability at 1 µM [27]: 89.9%
Activity [28]: 1.99%
Activity [29]: 7.23%
Activity [30]: 0.86%
viability at 10 µM [31]: 87.8%
Activity [32]: 2.1%
Activity [33]: 9.53%
Activity [34]: 0.58%
Activity [35]: inactive
inhibition [36]: Active
inhibition in vivo at 10 mg/kg [37]: 22.6%
Activity [38]: Non-Toxic
Activity [39]: Non-Toxic

SMILES: COc1cc2c(N)c3c(c(-c4ccc5c(c4)OCO5)c2cc1OC)C(=O)OC3
inhibition [40]: Active
Activity [41]: Dose-Dependent Effect
Activity [42]: Dose-Dependent Effect
Activity [35]: inactive
inhibition [36]: Active

solubility at 24 h [17]: 0.055 µg/mL
SMILES: COc1cc2c(N)c3c(c(-c4ccc5c(c4)OCO5)c2cc1OC)C(=O)OC3.Cl
